Test results from patent US11903386B2, “Strigolactone analogs and their usage in plant control” (King Abdullah University of Science and Technology, priority 2016, dated 2024).
Entries after “also recorded” stand apart in the source; their conditions may differ.

Experiments:
[1] = system: rice d10 mutant; assay: Rice micro tillering bioassay, d10 mutant; assay type: in vivo; settings: comparison between compounds
Method: Rice seeds (WT, d3, d10) were surface-sterilized by washing with 70% ethanol for 1 min and then with 2.5% sodium hypochlorite for 15 min. Seeds were then rinsed thoroughly with sterile MilliQ water and incubated in water for 2 days at 30° C. in the dark. Pre-germinated seeds were transferred to filter papers containing ½ strength MS medium in 90 mm petri dishes and incubated at 30° C. under fluorescent white light (130-180 μM m^−2 s^−1) for one week. Seven day-old seedlings were transferred to 50 ml falcon tubes (one seedling per tube) containing modified half-strength Hoagland nutrient solution and grown in greenhouse. Plants were treated with MPs at 2.5 μM-2.5×10-7 μM, using GR24 as positive control. The compounds were applied six times, twice a week. Number of tillers per plant, plant height and fresh biomass were measured at final harvest.
Statistical analyses were carried out using statistical software package R (version 3.2.2). Dose-response curves and Half Maximum Effective Concentrations (EC50) were calculated to determine optimum amount of MPs. Synthetic strigolactone analog GR24 was used as reference to estimate efficacy of selected compounds. EC50 and estimated response were calculated using drc package (https://cran.r390 project.org/web/packages/drc/) with a Four Parameter Logistic Curve (Dose Response Curve) (Ritz and Streibig, 2005).

[2] = target: T1, ShHTL7 (Striga hermonthica, UniProt A0A0M3PNA2); assay: In vitro hydrolysis assay with ShHTL7 (HPLC); assay type: biochemical; settings: 10 μM substrate, 37° C.
T1 sequence (A0A0M3PNA2 1-271): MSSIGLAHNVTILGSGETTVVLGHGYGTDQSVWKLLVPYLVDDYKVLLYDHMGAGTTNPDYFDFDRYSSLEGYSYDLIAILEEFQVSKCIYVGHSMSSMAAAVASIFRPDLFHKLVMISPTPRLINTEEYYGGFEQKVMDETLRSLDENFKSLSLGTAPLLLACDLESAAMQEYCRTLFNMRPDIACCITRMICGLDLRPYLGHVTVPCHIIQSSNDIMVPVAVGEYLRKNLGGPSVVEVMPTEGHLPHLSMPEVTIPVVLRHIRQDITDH

[3] = system: S. hermonthica seeds; assay: Striga hermonthica seed germination bioassay; assay type: in vivo; settings: for Relative activity in inducing S. hermonthica seed germination: comparison between compounds
Method: Parasitic weed seeds (S. hermonthica and P. ramosa) germination activity was recorded as described previously (Jamil et al., 2012). Six pre-conditioned seed discs were placed in a 90 mm petri-dish containing a filter paper ring wetted with 0.9 ml sterile MilliQ water. […] GR24 solutions with equal concentrations and sterile MilliQ water were included as a positive and negative control, respectively. After application, seeds were incubated at 30° C./25° C. in the dark for two days. Germination (seeds with radical emerging through seed coat) was scored under a binocular microscope, and germination rate (%) was calculated. Statistical analyses were carried out using statistical software package R (version 3.2.2). Dose-response curves and Half Maximum Effective Concentrations (EC50) were calculated to determine optimum amount of MPs. Synthetic strigolactone analog GR24 was used as reference to estimate efficacy of selected compounds. EC50 and estimated response were calculated using drc package (https://cran.r390 project.org/web/packages/drc/) with a Four Parameter Logistic Curve (Dose Response Curve) (Ritz and Streibig, 2005).

[4] = target: T2, OsD14 (Oryza sativa subsp. japonica, UniProt Q10QA5); assay: In vitro hydrolysis assay with OsD14 (HPLC); assay type: biochemical, rice; settings: 10 μM substrate, 37° C.
T2 construct: made in house; host or cells: E. coli BL21 (DE3)
T2 sequence (Q10QA5 1-318): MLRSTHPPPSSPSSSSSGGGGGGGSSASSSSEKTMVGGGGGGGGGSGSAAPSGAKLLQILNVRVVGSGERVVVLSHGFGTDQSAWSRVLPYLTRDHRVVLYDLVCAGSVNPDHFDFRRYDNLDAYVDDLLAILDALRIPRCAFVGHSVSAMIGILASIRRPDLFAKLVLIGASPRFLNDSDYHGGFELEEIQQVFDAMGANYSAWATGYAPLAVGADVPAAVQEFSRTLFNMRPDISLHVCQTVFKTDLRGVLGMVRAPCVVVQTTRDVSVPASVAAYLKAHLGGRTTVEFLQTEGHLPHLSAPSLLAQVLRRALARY
Source text: Striga hermonthica ShHTL7 cDNA, GenBank accession KR013127 was kindly provided by Prof. Tadao Asami (The University of Tokyo, Japan). Arabidopsis thaliana D14 (AtD14) cDNA, GenBank accession AY097402 was synthesized and cloned into pUC57 (GenScript). ShHTL7 and OsD14 cDNAs were amplified by RT-PCR using the primers shown in Table 2, digested with BamHI and XhoI, and ligated into BamHI/XhoI digested pGEX-6P-1 expression vector (GE Healthcare). Integrity of plasmids was confirmed by sequencing (KAUST Bioscience Core Lab). The plasmids were then transformed into E. coli BL21 (DE3) cells. The cells were grown in LB broth containing ampicillin ([…]), incubated at 37° C. until OD600 of 0.6 and induced with 0.1 mM isopropyl-β-D-thiogalactopyranoside (IPTG) at 16° C. for 16 h. […]
The hydrolysis of GR24 and MPs by ShHTL7/OsD14 was performed in a total volume of 0.5 ml of PBS buffer containing 10 μM of substrate. […] Hydrolysis of substrates was monitored by HPLC analysis using an Zorbax Eclipse Plus C18 column (3.5 μm, 2.1×150 mm), eluted by a gradient from 10% to 90% acetonitrile in water within 15 min and keeping final condition for 4 min. […] Eluted compounds were detected using a Diode Array Detector. Amounts of remaining substrates were determined by calculating corresponding peaks, in comparison to that of internal standard.

Structure (SMILES)	Relative activity in inhibiting rice tillering (d10) [1]	Hydrolysis rate by ShHTL7 [2]	Relative activity in inducing S. hermonthica seed germination [3]	Hydrolysis rate by OsD14 [4]	Striga germination activity (EC50) relative to GR24, times weaker ([3]; in vivo)
COC(=O)/C(=C/OC1C=C(C)C(=O)O1)c1ccc(Cl)cc1 (stereo not drawn) [MP7]	more active than GR24	higher hydrolysis activities with MP3 and MP7 than with GR24	highest germination activity	–	–
COC(=O)/C(=C/OC1C=C(C)C(=O)O1)c1ccc([N+](=O)[O-])cc1 (racemic) [MP1, (E)-methyl 3-(4-methyl-5-oxo-2,5-dihydrofuran-2-yloxy)-2-(4-nitrophenyl)acrylate]	weaker than GR24	highest hydrolysis rates	the most potent compound	highest hydrolysis rate	around 17 times
COC(=O)/C(=C/OC1C=C(C)C(=O)O1)c1ccccc1 (racemic) [MP3, (E)-methyl 3-(4-methyl-5-oxo-2,5-dihydrofuran-2-yloxy)-2-phenylacrylate]	the most active compound; also recorded: most pronounced inhibitory effect on tillering	finally MP3; also recorded: higher hydrolysis activities with MP3 and MP7 than with GR24	less active than MP1	finally MP3	–
